# Values of other authors, collected in patent US20190048020A1, “DEUTERIUM-MODIFIED CFTR MODULATORS” (VERTEX PHARMACEUTICALS (EUROPE) LIMITED, priority 2016, published 2019).
# Molecular target: T1, CFTR G5551D mutation (Homo sapiens, UniProt P13569, G551D)
# T1 construct: phase II study in patients with the CFTR G5551D mutation; host or cells: patients (in vivo, sweat chloride read-out)
# Details: phase II study, patients with the CFTR G5551D mutation
# T1 sequence (P13569 whole entry G551D): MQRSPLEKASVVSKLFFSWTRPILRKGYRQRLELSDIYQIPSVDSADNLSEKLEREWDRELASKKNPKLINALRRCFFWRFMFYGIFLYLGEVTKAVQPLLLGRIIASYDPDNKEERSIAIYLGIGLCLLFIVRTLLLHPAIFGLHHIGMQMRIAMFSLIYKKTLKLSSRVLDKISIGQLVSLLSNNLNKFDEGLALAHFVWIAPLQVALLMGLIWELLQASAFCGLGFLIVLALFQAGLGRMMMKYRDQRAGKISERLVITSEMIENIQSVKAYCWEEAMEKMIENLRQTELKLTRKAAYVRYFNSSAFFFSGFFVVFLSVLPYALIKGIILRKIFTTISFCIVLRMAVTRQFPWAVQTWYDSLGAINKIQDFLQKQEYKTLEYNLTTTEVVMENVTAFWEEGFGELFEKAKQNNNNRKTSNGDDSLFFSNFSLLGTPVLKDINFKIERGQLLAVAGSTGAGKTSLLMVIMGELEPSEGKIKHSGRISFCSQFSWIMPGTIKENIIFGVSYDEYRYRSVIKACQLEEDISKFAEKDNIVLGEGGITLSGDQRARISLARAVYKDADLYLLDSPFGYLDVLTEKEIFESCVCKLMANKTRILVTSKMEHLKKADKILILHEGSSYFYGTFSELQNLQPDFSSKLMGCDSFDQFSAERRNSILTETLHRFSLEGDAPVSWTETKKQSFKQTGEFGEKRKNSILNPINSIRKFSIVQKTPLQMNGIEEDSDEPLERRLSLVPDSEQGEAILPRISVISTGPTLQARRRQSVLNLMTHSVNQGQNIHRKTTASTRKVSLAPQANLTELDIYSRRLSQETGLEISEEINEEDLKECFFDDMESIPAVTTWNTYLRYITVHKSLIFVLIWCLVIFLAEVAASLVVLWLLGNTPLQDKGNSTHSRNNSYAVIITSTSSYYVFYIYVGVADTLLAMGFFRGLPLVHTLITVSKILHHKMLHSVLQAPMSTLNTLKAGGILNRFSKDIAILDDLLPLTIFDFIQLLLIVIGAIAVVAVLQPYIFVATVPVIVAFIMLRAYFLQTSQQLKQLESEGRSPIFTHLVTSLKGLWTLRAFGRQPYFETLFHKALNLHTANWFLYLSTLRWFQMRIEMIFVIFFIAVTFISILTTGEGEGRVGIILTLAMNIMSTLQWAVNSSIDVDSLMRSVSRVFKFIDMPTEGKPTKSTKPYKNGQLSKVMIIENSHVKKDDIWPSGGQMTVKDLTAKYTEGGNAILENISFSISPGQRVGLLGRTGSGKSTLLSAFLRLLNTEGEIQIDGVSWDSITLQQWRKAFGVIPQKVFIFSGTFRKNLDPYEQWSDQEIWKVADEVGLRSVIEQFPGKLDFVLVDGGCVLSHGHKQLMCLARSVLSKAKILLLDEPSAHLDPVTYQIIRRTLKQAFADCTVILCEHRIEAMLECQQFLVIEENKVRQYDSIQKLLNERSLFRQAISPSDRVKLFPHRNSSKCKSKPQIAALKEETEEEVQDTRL
structure (smiles),measurement,value
CC1(C)Cc2c(sc(NC(=O)c3ccn[nH]3)c2C(N)=O)C(C)(C)O1 [GLPG1837],sweat chloride concentration,statistically significant dose-dependent decrease
